In the supplement of paper PMC11061612:

Assays:
[1] = system: NCI-H441 (Lung Adenocarcinoma); test: Bliss excess, mean over the matrix (fraction); higher = more synergy
In short: (§1)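 Cell lines in DMEM/F12 or RPMI with 10% FBS were plated in 1536-well plates, held 24 hours at 37°C, 5% CO2, then given two-drug dose matrices for 72 hours (DMSO typically 0.2%). Viability was read by CellTiter-Glo 2.0 luminescence and scaled as inhibition from 0 (vehicle wells) to 1 (blank wells). Combination Emax is the second-highest inhibition in the matrix; Bliss excess is observed combination effect minus expected EA + EB − EA·EB, EA and EB being single-agent effects.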

[2] = system: HCC70 (Breast Carcinoma); test: as above
In short: as §1

[3] = system: MKN1 (Gastric Carcinoma); test: as above
In short: as §1

[4] = system: NCI-H1703 (Squamous Cell Lung Carcinoma); test: as above
In short: as §1

[5] = system: HCC1395 (Breast Carcinoma); test: as above
In short: as §1

[6] = system: NCI-H841 (Small Cell Lung Carcinoma); test: as above
In short: as §1

[7] = system: UACC-812 (Breast Carcinoma); test: as above
In short: as §1

[8] = system: MKN1 (Gastric Carcinoma); test: combination Emax (second highest fraction inhibited in the dose matrix, 72 h); higher = more inhibition; extreme values may be limits of the assay
In short: as §1

[9] = system: NCI-H841 (Small Cell Lung Carcinoma); test: as above
In short: as §1
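For Bliss excess, mean over the matrix in this document: after 72 h of two-drug dosing.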

SMILES | Bliss excess [1] | Bliss excess [2] | Bliss excess [3] | Bliss excess [4] | Bliss excess [5] | Bliss excess [6] | Bliss excess [7] | combination Emax [8] | combination Emax [9]
O=C(c1cc(Cc2n[nH]c(=O)c3ccccc23)ccc1F)N1CCN(C(=O)C2CC2)CC1 [Olaparib] + CN(CC[C@H](CSC1=CC=CC=C1)NC2=C(C=C(C=C2)S(=O)(=O)NC(=O)C3=CC=C(C=C3)N4CCC(CC4)[C@H](C5=CC=CC=C5C6=CC=C(C=C6)Cl)O)S(=O)(=O)C(F)(F)F)CCO [AZD4320] (first compound max 10 µM, 7x7, partner max 1 µM) | -0.0587 | 0.0129 | -0.0238 | -0.0311 | -0.0335 | -0.0526 | -0.0086 | 0.165 | 0.0513
C[C@@H]1COCCN1c1cc(C2([S@](C)(=N)=O)CC2)nc(-c2ccnc3[nH]ccc23)n1 [AZD6738] + Nc1ccn([C@@H]2O[C@H](CO)[C@@H](O)C2(F)F)c(=O)n1 [Gemcitabine] (first compound max 10 µM, 7x7, partner max 0.3 µM) | 0.0418 | 0.0904 | 0.0369 | -0.006 | 0.0334 | 0.0975 | 0.0592 | 0.951 | 0.829
Cc1c2c(nn1C)CSCc1cc(n(C)n1)CSc1cc(c3ccccc3c1)OCCCc1c(C(=O)O)n(C)c3c-2c(Cl)ccc13 [AZD5991] + CS(=O)(=O)CCNCc1ccc(-c2ccc3ncnc(Nc4ccc(OCc5cccc(F)c5)c(Cl)c4)c3c2)o1 [Lapatinib] (first compound max 1 µM, 7x7, partner max 10 µM) | -0.0054 | 0.0603 | -0.0016 | -0.0374 | -0.0227 | -0.0161 | 0.0603 | 0.53 | 0.3
O=C(c1cc(Cc2n[nH]c(=O)c3ccccc23)ccc1F)N1CCN(C(=O)C2CC2)CC1 [Olaparib] + Cc1c2c(nn1C)CSCc1cc(n(C)n1)CSc1cc(c3ccccc3c1)OCCCc1c(C(=O)O)n(C)c3c-2c(Cl)ccc13 [AZD5991] (first compound max 10 µM, 7x7, partner max 1 µM) | -0.054 | -0.0185 | -0.0332 | -0.0244 | -0.016 | -0.0522 | -0.0301 | 0.118 | 0.126
C[C@@H]1COCCN1c1cc(C2([S@](C)(=N)=O)CC2)nc(-c2ccnc3[nH]ccc23)n1 [AZD6738] + C1CC(C1)(C(=O)[O-])C(=O)[O-].N.N.[Pt+2] [Carboplatin] (first compound max 10 µM, 7x7, partner max 10 µM) | -0.0436 | -0.0305 | -0.0424 | -0.0312 | -0.0573 | -0.0587 | -0.0423 | 0.85 | 0.503
Cc1c2c(nn1C)CSCc1cc(n(C)n1)CSc1cc(c3ccccc3c1)OCCCc1c(C(=O)O)n(C)c3c-2c(Cl)ccc13 [AZD5991] + CC(=O)O[C@H]1C(=O)[C@@]2(C)[C@H]([C@H](OC(=O)c3ccccc3)[C@]3(O)C[C@H](OC(=O)[C@H](O)[C@@H](NC(=O)c4ccccc4)c4ccccc4)C(C)=C1C3(C)C)[C@]1(OC(C)=O)CO[C@@H]1C[C@@H]2O [Paclitaxel] (first compound max 1 µM, 7x7, partner max 3 µM) | -0.0193 | 0.0649 | -0.103 | -0.0136 | 0.0501 | 0.0663 | 0.0968 | 0.824 | 0.973
CS(=O)(=O)CCNCc1ccc(-c2ccc3ncnc(Nc4ccc(OCc5cccc(F)c5)c(Cl)c4)c3c2)o1 [Lapatinib] + Cn1cnc2c(F)c(Nc3ccc(Br)cc3Cl)c(C(=O)NOCCO)cc21 [Selumetinib] (first compound max 10 µM, 7x7, partner max 10 µM) | -0.0353 | 0.0408 | -0.002 | -0.0179 | -0.0343 | 0.0251 | -0.0001 | 0.596 | 0.303
CS(=O)(=O)CCNCc1ccc(-c2ccc3ncnc(Nc4ccc(OCc5cccc(F)c5)c(Cl)c4)c3c2)o1 [Lapatinib] + NC1(c2ccc(-c3nc4ccn5c(=O)[nH]nc5c4cc3-c3ccccc3)cc2)CCC1 [MK-2206] (first compound max 10 µM, 7x7, partner max 10 µM) | -0.0033 | 0.024 | 0.0099 | -0.0136 | -0.0376 | -0.0246 | – | 0.925 | 0.17
C=CCn1c(=O)c2cnc(Nc3ccc(N4CCN(C)CC4)cc3)nc2n1-c1cccc(C(C)(C)O)n1 [AZD1775] + Nc1ccn([C@@H]2O[C@H](CO)[C@@H](O)C2(F)F)c(=O)n1 [Gemcitabine] (first compound max 1 µM, partner max 0.3 µM) | -0.0298 | -0.0232 | 0.0171 | 0.0364 | 0.0294 | 0.0425 | -0.0613 | 0.927 | 0.726
C=CCn1c(=O)c2cnc(Nc3ccc(N4CCN(C)CC4)cc3)nc2n1-c1cccc(C(C)(C)O)n1 [AZD1775] + CCc1c2c(nc3ccc(O)cc13)-c1cc3c(c(=O)n1C2)COC(=O)[C@]3(O)CC [SN-38] (first compound max 1 µM, partner max 0.3 µM) | -0.0906 | -0.0528 | -0.0056 | -0.0341 | -0.0322 | -0.0421 | -0.0472 | 0.869 | 0.66
CN(CCO)CC[C@H](CSc1ccccc1)Nc1ccc(S(=O)(=O)NC(=O)c2ccc(N3CCC([C@@H](O)c4ccccc4-c4ccc(Cl)cc4)CC3)cc2)cc1S(=O)(=O)C(F)(F)F [AZD4320] + CS(=O)(=O)CCNCc1ccc(-c2ccc3ncnc(Nc4ccc(OCc5cccc(F)c5)c(Cl)c4)c3c2)o1 [Lapatinib] (first compound max 1 µM, 7x7, partner max 10 µM) | -0.0156 | 0.0536 | 0.046 | 0.0162 | -0.0261 | -0.0037 | -0.0066 | 0.888 | 0.237
Cc1c2c(nn1C)CSCc1cc(n(C)n1)CSc1cc(c3ccccc3c1)OCCCc1c(C(=O)O)n(C)c3c-2c(Cl)ccc13 [AZD5991] + Nc1ccn([C@@H]2O[C@H](CO)[C@@H](O)C2(F)F)c(=O)n1 [Gemcitabine] (first compound max 1 µM, 7x7, partner max 0.3 µM) | 0.0106 | 0.0365 | -0.0205 | -0.0604 | -0.0262 | 0.0135 | -0.0041 | 0.624 | 0.567
C[C@@H](Oc1cc(-c2cnn(C3CCNCC3)c2)cnc1N)c1c(Cl)ccc(F)c1Cl [Crizotinib] + Cn1cnc2c(F)c(Nc3ccc(Br)cc3Cl)c(C(=O)NOCCO)cc21 [Selumetinib] (first compound max 10 µM, 7x7, partner max 10 µM) | 0.0148 | 0.0191 | 0.0001 | -0.0569 | -0.0786 | -0.0528 | -0.0437 | 0.561 | 0.202
CC1(C)CCC(CN2CCN(c3ccc(C(=O)NS(=O)(=O)c4ccc(NCC5CCOCC5)c([N+](=O)[O-])c4)c(Oc4cnc5[nH]ccc5c4)c3)CC2)=C(c2ccc(Cl)cc2)C1 [Venetoclax] + CS(=O)(=O)CCNCc1ccc(-c2ccc3ncnc(Nc4ccc(OCc5cccc(F)c5)c(Cl)c4)c3c2)o1 [Lapatinib] (first compound max 1 µM, 7x7, partner max 10 µM) | -0.0292 | -0.0318 | -0.0194 | 0.0019 | -0.0509 | -0.0506 | 0.0062 | 0.433 | 0.13
Cc1nc(-c2cn3c(n2)-c2ccc(-c4cnn(C(C)(C)C(N)=O)c4)cc2OCC3)n(C(C)C)n1 [Taselisib] + O=C(Nc1ccc2[nH]nc(-c3ccncc3)c2c1)[C@@H]1CCN(CC(=O)N2CCN(c3ccc(-c4ncccn4)cc3)CC2)C1 [SCH772984] (first compound max 10 µM, 7x7, partner max 5 µM) | 0.0123 | 0.0593 | 0.0698 | -0.0292 | 0.0294 | 0.0606 | 0.0095 | 0.838 | 0.439
O=C(c1cc(Cc2n[nH]c(=O)c3ccccc23)ccc1F)N1CCN(C(=O)C2CC2)CC1 [Olaparib] + CC1(C)CCC(CN2CCN(c3ccc(C(=O)NS(=O)(=O)c4ccc(NCC5CCOCC5)c([N+](=O)[O-])c4)c(Oc4cnc5[nH]ccc5c4)c3)CC2)=C(c2ccc(Cl)cc2)C1 [Venetoclax] (first compound max 10 µM, 7x7, partner max 1 µM) | -0.0407 | -0.0472 | -0.0437 | -0.0065 | -0.0396 | -0.057 | -0.0202 | 0.122 | 0.0548
C[C@@H](Nc1cc(F)cc(F)c1)c1cc(C(=O)N(C)C)cc2c(=O)cc(N3CCOCC3)oc12 [AZD8186] + C1CN(CCC1(C(=O)N[C@@H](CCO)C2=CC=C(C=C2)Cl)N)C3=NC=NC4=C3C=CN4 [AZD5363] (first compound max 10 µM, 7x7, partner max 10 µM) | -0.0392 | -0.0152 | -0.0304 | 0.0503 | 0.0007 | -0.025 | -0.0187 | 0.491 | 0.293
O=C(c1cc(Cc2n[nH]c(=O)c3ccccc23)ccc1F)N1CCN(C(=O)C2CC2)CC1 [Olaparib] + COc1nnc2ccc(N3CCC(c4ccc(OCCN5CCN(C)C(=O)[C@H]5C)cc4)CC3)nn12 [AZD5153] (first compound max 10 µM, 7x7, partner max 1 µM) | -0.0779 | -0.0402 | -0.0577 | -0.0244 | -0.0658 | -0.0593 | -0.0384 | 0.631 | 0.236
C[C@@H](Oc1cc(-c2cnn(C3CCNCC3)c2)cnc1N)c1c(Cl)ccc(F)c1Cl [Crizotinib] + CC1=C(C(=CC=C1)Cl)NC(=O)C2=CN=C(S2)NC3=CC(=NC(=N3)C)N4CCN(CC4)CCO [Dasatinib] (first compound max 10 µM, 7x7, partner max 2 µM) | 0.0104 | -0.0407 | 0.0586 | -0.0736 | 0.0615 | -0.0089 | -0.0135 | 0.866 | 0.301
C[C@@H](Nc1cc(F)cc(F)c1)c1cc(C(=O)N(C)C)cc2c(=O)cc(N3CCOCC3)oc12 [AZD8186] + CC(=O)c1c(C)c2cnc(Nc3ccc(N4CCNCC4)cn3)nc2n(C2CCCC2)c1=O [Palbociclib] (first compound max 10 µM, 7x7, partner max 10 µM) | 0.0155 | 0.0225 | 0.0017 | 0.0093 | 0.063 | 0.0118 | 0.0506 | 0.674 | 0.266
